# Columns and labels:
# [1] = system: mixed leukocytes; test: Mixed leukocyte labeling yield; format: cell-based, canine; settings: for Mixed leukocyte labeling yield: 125I labeled, average, 10-30 μCi, 250-325 Ci/mmol
# Procedure: Labeling of mixed leukocytes (harvested from 20 mL canine blood) with 4a-d was performed using five different procedures: 1) labeling in Diluent C (a commercial non-ionic cell labeling media developed by Zynaxis Co. that is not approved for human use) after two saline washes of the cell pellet; 2) labeling in saline after two saline washes of the cell pellet; 3) labeling in saline with no saline washes of the cell pellet; 4 and 5) labeling in ether 10% or 100% platelet poor plasma (PPP).
# Unwashed mixed leukocytes in 1.5 mL 10% PPP in saline were also tested. […]
# This was evaporated to dryness under vacuum in a speed vac and reconstituted into 30 ul ethanol. Forty milliliters of canine blood was drawn into a 60 mL syringe containing 6.5 mL acetate-citrate-dextrose solution. To this was added 5.5 mL 2% methyl cellulose in saline. The contents of the syringe were gently mixed by several inversions of the syringe and the syringe placed vertically, needle end up, for 45 minutes to allow the red blood cells to settle. The plasma was drawn off and placed into a 50 mL Falcon tube. The tube was centrifuged at 1100 rpm for 15 minutes to pellet the leukocytes. The plasma was removed and the cells resuspended in 2 mL saline. In a 1 mL plastic microcentrifuge was placed 0.5 mL saline. […] The cells were then underlayered with 7.5 mL of platelet poor plasma and centrifuged at 1600 rpm for seven minutes to pellet the cells. The supernatant was removed, the cells resuspended in 10 mL saline, and transferred to a new tube. The supernatant, cells, and labeling tube were counted for radioactivity. The cells were centrifuged again at 1600 rpm for 7 minutes, the supernatant removed, and the cells resuspended.
# A sample of canine blood (20 mL) was drawn into a 60 mL syringe containing 3 mL acetate-citrate-dextrose (ACD) solution. To this was added 3 mL 2% methyl cellulose in saline. The contents of the syringe were gently mixed by several inversions, and the syringe was then placed vertically, needle end up, for 45 min to allow the red blood cells to settle. The plasma was drawn off and transferred to a 50 mL Falcon tube. The tube was centrifuged at 1100 rpm for 15 min to pellet the leukocytes. The plasma was removed and the cells resuspended in 10 mL saline. The tube was centrifuged at 1600 rpm for 7 min, the supernatant removed, and the cells resuspended in 10 mL saline and recentrifuged at 1600 rpm for 7 min. The supernatant was then removed and the cells resuspended in 2 mL Diluent C. Into a 1 mL plastic microcentrifuge tube was placed 0.5 mL Diluent C. […] The indium complex in Diluent C was immediately added to the leukocytes and the cells were placed vertically on a Nutator rocking apparatus and rocked gently for 30 min at room temperature. The cells were then underlayered with 5 mL of platelet poor plasma and centrifuged at 1600 rpm for 7 min to pellet the cells. The supernatant was removed, the cells resuspended in 10 mL saline, and transferred to a new tube. The supernatant, cells, and labeling tube were counted for radioactivity. The cells were centrifuged again at 1600 rpm for 7 min, the supernatant removed, and the cells resuspended.
# [2] = system: mononuclear leukocytes; test: Mononuclear leukocyte labeling yield; format: cell-based; settings: harvested from 20 mL canine blood via isolymph method
# Procedure: Using ^125 I-4b and ^131 I-4b, mononuclear leukocytes harvested from 20 mL canine blood via the isolymph method (sodium diatrizoste and Ficol 400, d=1.077) were labeled in 77% and 85% yields, respectively. Thus, the present compounds can label both lymphocytes and mixed leukocytes in high yields, and that the latter can be used to image sites of focal inflammation.
# [3] = system: sodium urate induced abscess in the stifle joint; test: Localization of labeled leukocytes in dogs having a sodium urate induced abscess in the stifle joint (aspirate, gamma camera images)
# Text: Mixed leukocytes labeled with 4b and ^111 In-oxine labeled mixed leukocytes were compared in dogs having a sodium urate-induced inflammation in the left stifle joint. […]
# [4] = system: inflammatory lesions / abscesses; settings: cited from earlier work
# [5] = Table 3 Experiment 3, 4b 500 Ci/mmol, Diluent C after 2 × 10 mL saline washes
# [6] = Table 3 Experiment 4, 4b 1000 Ci/mmol, Diluent C after 2 × 10 mL saline washes
# [7] = Table 3 Experiment 5, 4b 800 Ci/mmol, saline after 2 × 10 mL saline washes
# [8] = Table 3 Experiment 6, 4b 800 Ci/mmol, saline after 2 × 10 mL saline washes
# [9] = 48 hour, estimated from region of interest (ROI) measurements
# [10] = Experiment 3, injected 88 μCi 131I-4b, 331 μCi 111In-oxine, Diluent C
# [11] = Experiment 4, injected 255 μCi 131I-4b, 288 μCi 111In-oxine, Diluent C
# [12] = Experiment 5, injected 272 μCi 131I-4b, 326 μCi 111In-oxine, saline
# [13] = Experiment 6, injected 211 μCi 131I-4b, 378 μCi 111In-oxine, saline
# [14] = labeled leukocytes, McAfee et al.
molecule,measurement,setting,value
"indium-111 complex of N-[methyl(2-(Di-4-ASP-propylthiourea)ethyl)carbamide]-trans-1,2-diaminocyclohexane-N,N',N'-triacetic acid [^111 In-19a]","Mixed leukocyte labeling yield, 111In complexes",[1]; Diluent C,4%
"CCCCCCN(CCCCCC)c1ccc(/C=C/c2cc[n+](C/C=C/[131I])cc2)cc1 [^131 I-4b, 3-[4-[2-(N,N-dihexylamino)phenyl]ethyenyl]pyridino-E-1-[^131 I]-iodo-propene]",131I bound to the cells,"[1]; Example 10, of 372 uCi added, saline, 20 min",340 uCi
same,131I bound to the cells (labeling yield),"[1]; Example 10, saline, 372 uCi, 20 min, room temperature, after second centrifugation",91%
same,Labeling Yield,[1]; [5],88%
same,Labeling Yield,[1]; [6],88%
same,Labeling Yield,[1]; [7],86%
same,Labeling Yield,[1]; [8],87%
same,Mononuclear leukocyte labeling yield,[2],85%
same,"percent injected dose per organ, abscess",[3]; [9],1.15%
same,131I/111In or 125I/111In in aspirate,[3]; Experiment 3,2.6
same,% aspirate radioactivity cell bound,[3]; Experiment 3,93%
same,abscess to contralateral knee ratio,"[3]; Experiment 3, 3 hour",3.7
same,abscess to surrounding tissue ratio,"[3]; Experiment 3, 3 hour",2.3
same,% inj. dose in abscess aspirate,[3]; [10],0.050%
same,131I/111In or 125I/111In in aspirate,[3]; Experiment 4,3.5
same,% aspirate radioactivity cell bound,[3]; Experiment 4,97%
same,abscess to contralateral knee ratio,"[3]; Experiment 4, 48 hours",9.1
same,abscess to surrounding tissue ratio,"[3]; Experiment 4, 48 hours",6.3
same,% inj. dose in abscess aspirate,[3]; [11],0.194%
same,131I/111In or 125I/111In in aspirate,[3]; Experiment 5,4.3
same,% aspirate radioactivity cell bound,[3]; Experiment 5,95%
same,% inj. dose in abscess aspirate,[3]; [12],0.092%
same,131I/111In or 125I/111In in aspirate,[3]; Experiment 6,22
same,% aspirate radioactivity cell bound,[3]; Experiment 6,94%
same,% inj. dose in abscess aspirate,[3]; [13],0.355%
same,lung sequestration of labeled leukocytes,"[3]; dog, in vivo",No lung sequestration was observed
same,"percent injected dose per organ, liver","[3]; dog, in vivo, 2880 min",8.7%
same,"localization of labeled leukocytes in induced inflammatory site/abscess, compared with 111In-oxine (111In-labeled) leukocytes","[3]; sodium urate induced abscess, dog",higher degree of localization
C/C(=N\[O-])[C@@H](C)[N-]CC(C)(C)C[N-][C@H](C)/C(C)=N/O.[O]=[99Tc+3] (racemic) [^99m Tc-HMPAO],stability compared with the 111In radiopharmaceuticals,[4]; in vitro and in vivo,less stable both in vitro and in vivo
same,nonspecific biodistribution,"[4]; labeled leukocytes, in vivo","diffuse abdominal radioactivity, gall bladder uptake"
same,target to background ratios compared with cells labeled with 111In-oxine,[4]; [14],lower target to background ratios
same,uptake in abscesses compared with cells labeled with 111In-oxine,[4]; [14],lower absolute uptake in abscesses
same,"renal excretion of unidentified polar species containing 99mTc, earliest time",[4]; printed as early as three hours post injection,three hours post injection
CCCCCCCCN(CCCCCCCC)c1ccc(/C=C/c2cc[n+](C/C=C/[125I])cc2)cc1 [Compound 4c],Mixed leukocyte labeling yield,[1]; Diluent C,52%
same,Mixed leukocyte labeling yield,"[1]; saline, 2 washes of pellet",32%
same,Mixed leukocyte labeling yield,"[1]; saline, no washes of pellet",6%
same,Leukocyte labeling (in words),[1]; five labeling procedures compared,only labeled leukocytes in useful yields using Diluent C
"indium-111 complex of N-[methyl(2-(Di-10-ASP-propylthiourea)ethyl)carbamide]-trans-1,2-diaminocyclohexane-N,N',N'-triacetic acid [^111 In-19b]","Mixed leukocyte labeling yield, 111In complexes",[1]; Diluent C,84%
same,111In bound to the cells (labeling yield),"[1]; Example 15, Diluent C, 44.4 μCi, 30 min, room temperature",84%
same,111In bound to the cells,"[1]; Example 15, of 44.4 μCi added",37.4 μCi
"indium-111 complex of N-[methyl(2-(Di-6-ASP-acetamido)ethyl)carbamide]-trans-1,2-diaminocyclohexane-N,N',N'-triacetic acid [^111 In-18]","Mixed leukocyte labeling yield, 111In complexes",[1]; Diluent C,21%
"[In+3].[O-]c1cccc2cccnc12.[O-]c1cccc2cccnc12.[O-]c1cccc2cccnc12 [^111 In-oxine, reference compound]",Labeling Yield,"[1]; Table 3 Experiment 1, 4b 250 Ci/mmol, Diluent C after 2 × 10 mL saline washes",88%
same,Labeling Yield,"[1]; Table 3 Experiment 2, 4b footnotes a,c (250 / 1000 Ci/mmol)",91%
same,Labeling Yield,[1]; [5],85%
same,Labeling Yield,[1]; [6],94%
same,Labeling Yield,[1]; [7],89%
same,Labeling Yield,[1]; [8],87%
same,abscess visibility in gamma camera images,[3]; 3 hours,the abscess was visible at 3 hours
same,"percent injected dose per organ, liver",[3]; [9],13.1%
same,% aspirate radioactivity cell bound,[3]; Experiment 1,95%
same,% inj. dose in abscess aspirate,"[3]; Experiment 1, injected 84 μCi 125I-4b, 500 μCi 111In-oxine, Diluent C",0.383%
same,% aspirate radioactivity cell bound,[3]; Experiment 2,98%
same,% inj. dose in abscess aspirate,"[3]; Experiment 2, injected 66 μCi 125I-4b, 312 μCi 111In-oxine",0.088%
same,% aspirate radioactivity cell bound,[3]; Experiment 3,79%
same,abscess to contralateral knee ratio,"[3]; Experiment 3, 3 hour",2.7
same,abscess to surrounding tissue ratio,"[3]; Experiment 3, 3 hour",2.0
same,% inj. dose in abscess aspirate,[3]; [10],0.019%
same,% aspirate radioactivity cell bound,[3]; Experiment 4,88%
same,abscess to contralateral knee ratio,"[3]; Experiment 4, 48 hours",4.0
same,abscess to surrounding tissue ratio,"[3]; Experiment 4, 48 hours",2.6
same,% inj. dose in abscess aspirate,[3]; [11],0.056%
same,% aspirate radioactivity cell bound,[3]; Experiment 5,92%
same,% inj. dose in abscess aspirate,[3]; [12],0.021%
same,131I/111In or 125I/111In in aspirate,[3]; Experiment 6,22
same,% aspirate radioactivity cell bound,[3]; Experiment 6,78%
same,% inj. dose in abscess aspirate,[3]; [13],0.016%
same,"gamma camera images, comparison of 4b and 111In-oxine",[3]; between 1 hour and 3 hours,comparable
same,absolute inflammatory lesion uptake,[4]; compared with all agents yet tested,highest absolute inflammatory lesion uptake of all agents yet tested

# Source: patent US5840859A, “(Aminostyryl)pyridinium compounds for radiolabelling cell membranes” (Research Corporation Technologies, Inc., priority 1996, dated 1998)
